In patent US12065436B2, “Cardiac sarcomere inhibitors” (Cytokinetics, Inc., priority 2018, dated 2024):
Read-outs that look alike come from different tables or passages of the source.

Experiments:
[1] = test system: R403Q mice (alpha cardiac myosin heavy chain mutation, familial hypertrophic cardiomyopathy model); assay: Longitudinal echocardiography in R403Q mouse model of HCM; type: in vivo; settings: compound formulated in chow for 24 weeks, echocardiography every 4 weeks, versus untreated R403Q mice
Method: Assessment over time of in vivo cardiac function by echocardiography was performed using a previously reported mouse model of familial hypertrophic cardiomyopathy, which was generated by an arginine to glutamine mutation at residue 403 (R403Q) of the alpha cardiac myosin heavy chain (MHC) gene (Geisterfer-Lowrance et al., Science. 1996 May 3; 272(5262):731-4). Cardiac dysfunction, fibrosis, and measures of cardiac hypertrophy (including ventricular wall thickness) increase with age in this mouse model (Geisterfer-Lowrance, supra; Jiang et al., Science. 2013, 342(6154):111-4).
R403Q mice received vehicle or Compound 142 formulated in chow for 24 weeks. Longitudinal echocardiography measurements were performed every 4 weeks. Echocardiography measurements were taken with mice under isoflurane (1-3%) anesthesia. 2-D M-mode images of the left ventricle were acquired in short-axis view. In vivo fractional shortening was determined by M-mode image analysis with the following calculation: ((End diastolic diameter−end systolic diameter)/end diastolic diameter×100).

[2] = test system: Dahl Salt Sensitive (DSS) rats, hypertension-induced model of heart failure with preserved ejection fraction; assay: Fibrosis reduction in Dahl Salt Sensitive rat model of cardiac hypertrophy; type: in vivo; settings: high-salt diet fed DSS rats, compound formulated in chow for 6 weeks, perivascular and interstitial cardiac tissue
Method: Assessment of fibrosis reduction was performed using Dahl Salt Sensitive (DSS) rats, a previously reported hypertension-induced rat model of heart failure with preserved ejection fraction (Fillmore et al., Mol Med. 2018, 24(1):3; Dahl et al., J Exp Med. 1962, 115:1173-90).
DSS rats received vehicle or Compound 142 formulated in low or high salt chow for 6 weeks. Perivascular and interstitial cardiac tissue samples were imaged and assayed for % cardiac fibrosis.

[3] = test system: rat cardiac contractility (left ventricle fractional shortening); assay: Echocardiography of acute effect on rat cardiac contractility, continuous IV infusion; type: in vivo, Sprague Dawley rats; settings: Rattus norvegicus, plasma concentration at which fractional shortening is 50% of pre-dose baseline, estimated, read-out: IC50 (Mean ± S.D.)
Method: Assessment of in vivo cardiac function by echocardiography was performed in male Sprague Dawley rats under isoflurane (1-3%) anesthesia. 2-D M-mode images of the left ventricle were acquired in the parasternal long-axis view before, during, and after administration of compounds by continuous IV infusion or oral gavage. In vivo fractional shortening was determined by M-mode image analysis with the following calculation: ((End diastolic diameter−end systolic diameter)/end diastolic diameter×100). For continuous IV infusion experiments, three pre-dose baseline M-mode images were taken at 1 minute intervals prior to infusion of compound. Compounds were formulated in 50% Propylene Glycol (PG): 16% Captisol: 10% dimethylacetamide (DMA) and delivered via a jugular vein catheter at the rate of 1 mL/kg/h. During infusion, M-mode images were taken at 5 minute intervals. The infusion stopped when fractional shortening reached up to a 60% reduction from baseline. Blood samples were taken to determine the plasma concentration of the compounds. Data was reported as an estimated IC50 value, which is the concentration at which fractional shortening is 50% of the pre-dose baseline contractility.

[4] = test system: rat cardiac contractility (left ventricle fractional shortening); assay: Echocardiography of acute effect on rat cardiac contractility, oral gavage; type: in vivo, Sprague Dawley rats; settings: for inhibition in vivo at 6 mg/kg: oral gavage
Method in brief: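 Male Sprague Dawley rats under isoflurane (1-3%) anesthesia had three pre-dose baseline M-mode images of the left ventricle (parasternal long-axis view) taken at 1 minute intervals. Compound in 0.5% HPMC 2910: 0.1% Tween 80 suspension was then given as a single oral gavage dose (5 mL/kg). Fractional shortening was measured at chosen time points over 24 hours, with plasma concentrations sampled concurrently.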

[5] = molecular target: bovine cardiac myofibrils (full-length cardiac myosin ATPase in the native sarcomere) (Bos taurus (Bovine), UniProt Q9BE39); assay: Skinned bovine cardiac myofibril ATPase assay (PK/LDH-coupled); type: biochemical; settings: Ca2+ activating to 75% of maximal rate
Sequence of bovine cardiac myofibrils (full-length cardiac myosin ATPase in the native sarcomere) (Q9BE39 whole entry): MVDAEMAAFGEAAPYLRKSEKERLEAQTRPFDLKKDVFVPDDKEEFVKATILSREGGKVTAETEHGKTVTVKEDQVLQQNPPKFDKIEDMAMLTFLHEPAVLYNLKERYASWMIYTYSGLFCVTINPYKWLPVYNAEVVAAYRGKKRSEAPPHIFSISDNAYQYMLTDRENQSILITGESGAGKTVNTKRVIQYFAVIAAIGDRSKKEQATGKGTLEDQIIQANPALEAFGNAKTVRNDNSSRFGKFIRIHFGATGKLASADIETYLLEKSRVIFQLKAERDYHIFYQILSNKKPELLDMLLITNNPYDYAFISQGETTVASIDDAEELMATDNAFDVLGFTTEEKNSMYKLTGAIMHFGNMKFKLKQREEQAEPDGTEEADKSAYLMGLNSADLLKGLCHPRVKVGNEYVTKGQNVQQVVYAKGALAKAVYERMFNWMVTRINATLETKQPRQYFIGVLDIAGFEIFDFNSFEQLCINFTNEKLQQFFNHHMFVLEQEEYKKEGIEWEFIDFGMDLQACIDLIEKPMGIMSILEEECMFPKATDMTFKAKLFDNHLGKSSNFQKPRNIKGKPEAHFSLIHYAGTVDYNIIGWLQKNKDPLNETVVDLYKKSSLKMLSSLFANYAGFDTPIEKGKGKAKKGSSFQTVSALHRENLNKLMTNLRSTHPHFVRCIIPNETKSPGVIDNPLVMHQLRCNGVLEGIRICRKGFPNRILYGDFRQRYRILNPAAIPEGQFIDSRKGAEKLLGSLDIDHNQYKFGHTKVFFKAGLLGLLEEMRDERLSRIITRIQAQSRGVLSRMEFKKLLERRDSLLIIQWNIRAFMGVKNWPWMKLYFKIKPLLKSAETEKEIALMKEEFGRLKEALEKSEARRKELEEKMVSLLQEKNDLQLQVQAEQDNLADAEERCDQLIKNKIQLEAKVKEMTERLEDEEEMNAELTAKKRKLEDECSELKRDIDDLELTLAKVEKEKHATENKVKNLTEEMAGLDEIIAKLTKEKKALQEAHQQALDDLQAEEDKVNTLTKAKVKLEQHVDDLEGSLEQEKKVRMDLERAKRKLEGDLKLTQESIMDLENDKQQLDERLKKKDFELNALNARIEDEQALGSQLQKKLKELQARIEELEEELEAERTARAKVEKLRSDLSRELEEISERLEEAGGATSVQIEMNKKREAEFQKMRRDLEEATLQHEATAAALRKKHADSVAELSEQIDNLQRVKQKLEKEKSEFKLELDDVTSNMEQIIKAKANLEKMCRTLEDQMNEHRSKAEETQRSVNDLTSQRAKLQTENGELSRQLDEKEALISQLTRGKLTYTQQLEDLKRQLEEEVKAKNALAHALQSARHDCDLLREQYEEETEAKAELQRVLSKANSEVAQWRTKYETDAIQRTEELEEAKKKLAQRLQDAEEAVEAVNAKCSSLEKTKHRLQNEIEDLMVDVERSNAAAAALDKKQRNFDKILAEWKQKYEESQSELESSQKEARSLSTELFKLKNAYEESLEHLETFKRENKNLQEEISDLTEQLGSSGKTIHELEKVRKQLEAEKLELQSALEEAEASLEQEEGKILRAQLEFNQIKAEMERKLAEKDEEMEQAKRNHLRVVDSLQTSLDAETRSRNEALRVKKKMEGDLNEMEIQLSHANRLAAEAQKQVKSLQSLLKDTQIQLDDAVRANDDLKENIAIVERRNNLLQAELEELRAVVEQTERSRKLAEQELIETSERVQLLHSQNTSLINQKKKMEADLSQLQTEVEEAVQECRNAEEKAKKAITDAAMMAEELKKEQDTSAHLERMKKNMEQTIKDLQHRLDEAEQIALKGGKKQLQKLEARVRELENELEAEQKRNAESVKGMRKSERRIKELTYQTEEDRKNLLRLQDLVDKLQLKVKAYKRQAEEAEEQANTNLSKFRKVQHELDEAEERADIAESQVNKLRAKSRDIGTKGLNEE
Sequence of bovine cardiac myofibrils (full-length cardiac myosin ATPase in the native sarcomere) (P85100 whole entry partner): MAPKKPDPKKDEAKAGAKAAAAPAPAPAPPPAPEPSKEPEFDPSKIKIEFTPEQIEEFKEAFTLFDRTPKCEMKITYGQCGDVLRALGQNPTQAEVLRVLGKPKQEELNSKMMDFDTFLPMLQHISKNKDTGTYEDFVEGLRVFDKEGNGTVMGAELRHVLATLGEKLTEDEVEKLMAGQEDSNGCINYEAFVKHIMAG
Sequence of bovine cardiac myofibrils (full-length cardiac myosin ATPase in the native sarcomere) (Q3SZE5 whole entry partner): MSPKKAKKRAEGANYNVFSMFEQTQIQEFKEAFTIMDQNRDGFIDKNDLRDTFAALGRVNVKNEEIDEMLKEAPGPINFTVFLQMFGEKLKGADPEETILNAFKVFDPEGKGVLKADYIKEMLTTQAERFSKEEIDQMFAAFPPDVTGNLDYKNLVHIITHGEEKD
Method in brief: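 Triton-skinned bovine left-ventricle myofibrils (1 mg/mL) in PM 12 buffer (12 mM PIPES, 2 mM MgCl2, pH 6.8) with 50 μM ATP, 0.6 mM EGTA and CaCl2 set for 50% or 75% activation. Steady-state ATPase inhibition followed by PK/LDH-coupled NADH oxidation at 340 nm.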

For CC(C)c1nc(-c2ccc3c(c2)CC[C@H]3NC(=O)c2nnn(C)n2)no1 [Compound 142, (R)—N-(5-(5-isopropyl-1,2,4-oxadiazol-3-yl)-2,3-dihydro-1H-inden-1-yl)-2-methyl-2H-tetrazole-5-carboxamide], the “septal and left ventricular posterior wall thickness” value [1] was “attenuated increases in septal and left ventricular posterior wall thickness”, the “% cardiac fibrosis” value [2] was “attenuated increases in fibrosis” and the IC50 [3] was 2700 ± 120 nM. It also gave an inhibition in vivo at 6 mg/kg ([4]; Rattus norvegicus, 1 h, 1-2 h post dose, read-out: FS (% reduction from baseline) at 1-2 h post dose (Mean ± S.D.)) of 40 ± 9%, an IC50 ([4]; Rattus norvegicus, oral dosing, plasma concentration at which fractional shortening is 50% of pre-dose baseline, estimated) of 2900 nM and an inhibition in vivo at 6 mg/kg ([4]; Rattus norvegicus, 4 h post dose, read-out: FS (% reduction from baseline) at 4 h post dose (Mean ± S.D.)) of 18 ± 11%. For the same molecule, the IC10 ([4]; oral dosing, plasma concentration at which, estimated) was 0.7 µM, the “CDMF75 IC15” value ([5]; concentration giving 15% inhibition) was 0.5 µM and the IC50 ([5]; read-out: CDMF75 IC50) was 2400 nM.
